Source: patent US20140303396A1, “Method for Preparing High-Purity Fesoterodine Fumarate” (CHEMI S.P.A., priority 2009, published 2014)

Assays:
[1] = Solution stability in methylethylketone at T = 40° C. (HPLC); format: physicochemical
Experimental: In detail, the experiment related to Table 1 consists of dissolving fesoterodine fumarate in methylethylketone at 40° C., drawing samples of the freshly dissolved solution (time 0), after 1, 3 and 20 hours of maintenance at 40° C. and analyzing them in HPLC in order to verify their purity.

[2] = Solid stability at T = 60° C. in atmosphere with 60% relative humidity (HPLC); format: physicochemical; design: Impurity RRt = 1.05 / Impurity RRt = 1.34 / Diester impurity: unit not given here
Experimental: In confirmation thereof, another stability test was carried out at 60° C. on the crystallized solid product, whose results are reported in Table 2. In detail, the experiment consists of introducing a sample of fesoterodine fumarate in an oven capable of maintaining a temperature of 60° C. and 60% relative humidity, drawing samples of the freshly introduced substance (time 0) after 24, 48, 72 and 144 hours staying in such conditions, and analyzing them in HPLC in order to verify their purity.

CC(C)C(=O)Oc1ccc(CO)cc1[C@H](CCN(C(C)C)C(C)C)c1ccccc1.O=C(O)/C=C/C(=O)O [fesoterodine fumarate, 2-((R)-3-diisopropylammonium-1-phenylpropyl)-4-(hydroxymethyl) phenyl isobutyrate hydrogen fumarate]
Feso fumaric ester impurity ([1]; t = 0): 0.07 | HPLC Purity ([1]; t = 0): 99.87 Area % | Impurity RRt = 1.34 ([1]; t = 0): 0.06 | Feso fumaric ester impurity ([1]; t = 1 hour): 0.09 | HPLC Purity ([1]; t = 1 hour): 99.85 Area % | Impurity RRt = 1.34 ([1]; t = 1 hour): 0.06 | (R)-feso-deacyl ([1]; t = 3 hours): 0.01% | Diester impurity ([1]; t = 3 hours): 0.04 | Feso fumaric ester impurity ([1]; t = 3 hours): 0.12 | HPLC Purity ([1]; t = 3 hours): 99.77 Area % | Impurity RRt = 1.34 ([1]; t = 3 hours): 0.06 | (R)-feso-deacyl ([1]; t = 20 hours): 0.02% | Diester impurity ([1]; t = 20 hours): 0.06 | Feso fumaric ester impurity ([1]; t = 20 hours): 0.14 | HPLC Purity ([1]; t = 20 hours): 99.70 Area % | Impurity RRt = 1.34 ([1]; t = 20 hours): 0.08 | (R)-feso-deacyl ([2]; t = 0): 0.02% | Diester impurity ([2]; t = 0): 0.04 | Feso fumaric ester impurity ([2]; t = 0): 0.09 | HPLC Purity ([2]; t = 0): 99.85 Area % | (R)-feso-deacyl ([2]; t = 24 h): 0.02% | Diester impurity ([2]; t = 24 h): 0.04 | Feso fumaric ester impurity ([2]; t = 24 h): 0.11 | HPLC Purity ([2]; t = 24 h): 99.83 Area % | (R)-feso-deacyl ([2]; t = 48 h): 0.02% | Diester impurity ([2]; t = 48 h): 0.04 | Feso fumaric ester impurity ([2]; t = 48 h): 0.12 | HPLC Purity ([2]; t = 48 h): 99.74 Area % | Impurity RRt = 1.34 ([2]; t = 48 h): 0.08 | (R)-feso-deacyl ([2]; t = 72 h): 0.03% | Diester impurity ([2]; t = 72 h): 0.04 | Feso fumaric ester impurity ([2]; t = 72 h): 0.13 | HPLC Purity ([2]; t = 72 h): 99.72 Area % | Impurity RRt = 1.05 ([2]; t = 72 h): 0.02 | Impurity RRt = 1.34 ([2]; t = 72 h): 0.06 | (R)-feso-deacyl ([2]; t = 144 h): 0.05% | Diester impurity ([2]; t = 144 h): 0.04 | Feso fumaric ester impurity ([2]; t = 144 h): 0.14 | HPLC Purity ([2]; t = 144 h): 99.64 Area % | Impurity RRt = 1.05 ([2]; t = 144 h): 0.03 | Impurity RRt = 1.34 ([2]; t = 144 h): 0.07 | RRt = 1.86 ([2]; t = 144 h): 0.03%
